Measured values reported in US20240139172A1, “PIPERIDINE UREA DERIVATIVES FOR CANCER THERAPY” (NeuroPn Therapeutics, Inc., priority 2022, published 2024).

System: adult zebrafish
Assay: Paclitaxel-induced peripheral neuropathy in adult zebrafish (number of stimuli until twitch)
Format: in vivo
Settings: 3 μL of 10-μM paclitaxel solution for four consecutive days, FIG. 9
Experimental: Method to evaluate potential of compounds of Formula 1 to reduce or block chemotherapy-induced peripheral neuropathy—Animal (zebrafish) model described below and in literature (Lisse T S et al PNAS 113 (15) E2189-E2198) was used to evaluate potential of compounds of Formula 1 to reduce or block neuronal damage induced by chemotherapeutics.
To induce peripheral neuropathy in adult zebrafish, 3 μL of a 10-μM paclitaxel solution in 0.15% DMSO was administered with a 33 gauge Hamilton Syringe for a zebrafish with average ˜200 mg body weight. Fish were treated with vehicle alone or paclitaxel for four consecutive days (Days 2-5) or paclitaxel with Compound A (10- or 30 ng). Compound A was dosed orally by mixing with the fish feed pellets. Fishes were conditioned to consume three pellets a day. […] To prepare test compound infused pellet, a known quantity of the compound was mixed with the known quantity of the feed powder and were extruded in to 4 mg pellet containing the desired administration dose per pellet. Concentration of test compound dosed per fish were controlled by the number of pellets and the quantity of compound per pellet. […]
To determine the peripheral nerve damage, fish were wrapped in plastic foil until calm, and the distal tail fin was stimulated with an insect pin until twitching of the fish was observed. Number of stimuli until twitch was recorded.

CC(=O)O[C@H]1C(=O)[C@@]2(C)[C@H]([C@H](OC(=O)c3ccccc3)[C@]3(O)C[C@H](OC(=O)[C@H](O)[C@@H](NC(=O)c4ccccc4)c4ccccc4)C(C)=C1C3(C)C)[C@]1(OC(C)=O)CO[C@@H]1C[C@@H]2O [paclitaxel]
peripheral nerve damage (increase in number of stimuli needed) compared to vehicle alone: significant nerve damage
